Active and inactive are the calls of the source.
Tests used:
Type in all cases: functional
[1] = biological target: T1, Carboxy-terminal domain RNA polymerase II polypeptide A small phosphatase 1 (Homo sapiens, UniProt Q9GZU7); assay: inhibitors of CTDSP1, concentration-response testing, biochemical assay, absorbance-based, actives from ultra-high-throughput screening (AID 540297)
T1 sequence (Q9GZU7 whole entry): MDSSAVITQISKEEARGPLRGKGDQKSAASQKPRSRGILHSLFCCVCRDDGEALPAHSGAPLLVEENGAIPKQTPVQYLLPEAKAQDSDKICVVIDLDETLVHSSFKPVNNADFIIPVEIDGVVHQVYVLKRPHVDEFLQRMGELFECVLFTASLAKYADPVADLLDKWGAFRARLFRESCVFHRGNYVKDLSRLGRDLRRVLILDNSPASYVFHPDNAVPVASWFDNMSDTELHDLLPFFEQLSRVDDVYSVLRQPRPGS

[2] = biological target: Arf-GAP with SH3 domain, ANK repeat and PH domain-containing protein 1 (Homo sapiens, UniProt Q9ULH1);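 also: biochemical fluorescence polarization dose–response screen measuring inhibition of ASAP1; ASAP1 GAP domain stimulating GTP hydrolysis by truncated human ARF1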
Sequence of Arf-GAP with SH3 domain, ANK repeat and PH domain-containing protein 1 (Q9ULH1 whole entry, the tested form may be a part): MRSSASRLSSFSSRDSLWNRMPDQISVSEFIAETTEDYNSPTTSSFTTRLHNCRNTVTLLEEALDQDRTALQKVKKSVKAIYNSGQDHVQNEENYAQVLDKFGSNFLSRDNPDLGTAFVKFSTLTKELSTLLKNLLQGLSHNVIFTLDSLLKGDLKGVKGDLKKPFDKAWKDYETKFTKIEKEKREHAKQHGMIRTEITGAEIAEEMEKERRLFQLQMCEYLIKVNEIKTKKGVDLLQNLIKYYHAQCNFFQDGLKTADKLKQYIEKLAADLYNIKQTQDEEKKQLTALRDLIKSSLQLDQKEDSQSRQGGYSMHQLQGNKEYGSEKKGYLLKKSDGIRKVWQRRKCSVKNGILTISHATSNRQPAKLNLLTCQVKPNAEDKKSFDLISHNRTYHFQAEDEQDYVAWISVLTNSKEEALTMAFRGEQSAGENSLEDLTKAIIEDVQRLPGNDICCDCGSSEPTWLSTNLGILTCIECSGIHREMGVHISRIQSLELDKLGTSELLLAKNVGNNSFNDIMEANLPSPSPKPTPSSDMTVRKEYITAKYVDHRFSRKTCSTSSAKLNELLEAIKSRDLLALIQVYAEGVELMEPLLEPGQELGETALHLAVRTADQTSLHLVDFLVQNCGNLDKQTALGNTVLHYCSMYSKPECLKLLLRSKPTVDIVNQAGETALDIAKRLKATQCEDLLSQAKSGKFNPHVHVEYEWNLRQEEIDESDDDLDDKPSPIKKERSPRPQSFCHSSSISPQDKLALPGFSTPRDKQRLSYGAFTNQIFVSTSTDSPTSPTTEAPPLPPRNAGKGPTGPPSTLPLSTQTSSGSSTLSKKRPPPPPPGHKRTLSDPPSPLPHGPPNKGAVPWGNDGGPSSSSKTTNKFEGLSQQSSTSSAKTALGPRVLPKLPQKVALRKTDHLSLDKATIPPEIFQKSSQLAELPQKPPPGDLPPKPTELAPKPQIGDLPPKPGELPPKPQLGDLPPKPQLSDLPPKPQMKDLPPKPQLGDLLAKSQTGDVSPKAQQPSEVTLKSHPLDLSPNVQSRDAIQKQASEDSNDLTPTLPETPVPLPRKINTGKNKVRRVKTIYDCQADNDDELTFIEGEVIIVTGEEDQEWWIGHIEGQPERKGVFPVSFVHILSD

[3] = biological target: Broad substrate specificity ATP-binding cassette transporter ABCG2 (Homo sapiens, UniProt Q9UNQ0); assay: ABCG2 efflux pump inhibitors, dose response, Ig-MXP3 cells, flow cytometry (AID 1690)
Sequence of Broad substrate specificity ATP-binding cassette transporter ABCG2 (Q9UNQ0 whole entry): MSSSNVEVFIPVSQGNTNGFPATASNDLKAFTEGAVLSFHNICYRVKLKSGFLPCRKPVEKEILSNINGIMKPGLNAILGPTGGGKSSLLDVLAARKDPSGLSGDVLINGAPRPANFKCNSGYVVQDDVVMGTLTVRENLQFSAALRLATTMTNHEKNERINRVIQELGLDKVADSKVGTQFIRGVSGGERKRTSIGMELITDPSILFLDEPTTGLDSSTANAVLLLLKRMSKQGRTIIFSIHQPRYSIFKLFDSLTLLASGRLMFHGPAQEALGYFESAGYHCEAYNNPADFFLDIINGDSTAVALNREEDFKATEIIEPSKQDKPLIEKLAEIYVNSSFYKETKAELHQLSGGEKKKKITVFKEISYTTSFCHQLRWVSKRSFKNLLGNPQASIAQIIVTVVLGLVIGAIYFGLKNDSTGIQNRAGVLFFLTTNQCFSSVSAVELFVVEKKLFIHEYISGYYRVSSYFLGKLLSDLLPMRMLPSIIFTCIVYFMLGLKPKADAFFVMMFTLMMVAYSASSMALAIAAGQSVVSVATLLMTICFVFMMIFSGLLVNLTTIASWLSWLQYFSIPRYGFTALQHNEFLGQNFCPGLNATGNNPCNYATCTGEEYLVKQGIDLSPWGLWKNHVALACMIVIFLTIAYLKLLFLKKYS

[4] = Luminescence Cell-Based Dose Response to Identify Activators of Luciferase Translation or Activity in H4-C Neuroglioblastoma Cells. [Related pubchem assays: 1829 (Project Summary), 1814 (Primary HTS)]
[5] = Luminescence Cell-Based Dose Confirmation to Identify Activators of 5'UTR Stem-Loop Driven Alpha-Synuclein mRNA Translation in H4 Neuroglioblastoma Cells. [Related pubchem assays: 1829 (Project Summary), 1814 (Primary HTS)]
[6] = Luminescence Cell-Based Dose Response to Identify Activators of 5'UTR Stem-Loop Driven Prion Protein mRNA Translation in H4-C Neuroglioblastoma Cells. [Related pubchem assays: 1829 (Project Summary), 1814 (Primary HTS)]
Protein skinhead-1 = biological target: T2, Protein skinhead-1 (Caenorhabditis elegans, UniProt P34707)
T2 sequence (P34707 whole entry): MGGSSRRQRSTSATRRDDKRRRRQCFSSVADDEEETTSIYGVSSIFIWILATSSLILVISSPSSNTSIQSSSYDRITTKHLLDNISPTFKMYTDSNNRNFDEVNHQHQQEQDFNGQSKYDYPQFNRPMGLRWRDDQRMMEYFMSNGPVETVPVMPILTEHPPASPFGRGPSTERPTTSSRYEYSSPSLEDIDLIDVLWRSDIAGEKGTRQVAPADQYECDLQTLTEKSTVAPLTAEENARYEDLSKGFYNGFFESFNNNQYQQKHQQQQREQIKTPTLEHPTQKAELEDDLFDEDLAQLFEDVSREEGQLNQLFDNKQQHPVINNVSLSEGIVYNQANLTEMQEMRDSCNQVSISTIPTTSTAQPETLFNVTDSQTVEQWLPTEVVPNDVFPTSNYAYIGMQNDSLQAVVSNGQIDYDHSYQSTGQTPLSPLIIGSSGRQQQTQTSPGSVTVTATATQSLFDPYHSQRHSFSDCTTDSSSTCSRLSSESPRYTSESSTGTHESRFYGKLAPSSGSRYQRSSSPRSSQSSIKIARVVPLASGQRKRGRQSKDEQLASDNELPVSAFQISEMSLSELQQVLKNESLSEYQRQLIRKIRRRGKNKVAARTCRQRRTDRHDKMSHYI

[7] = biological target: ATP-dependent translocase ABCB1 (Homo sapiens, UniProt P08183); assay: ABCB1 efflux pump inhibitor potency, dose response, Jurkat-DNR cells, JC-1, flow cytometry (AID 1689)
Sequence of ATP-dependent translocase ABCB1 (P08183 whole entry): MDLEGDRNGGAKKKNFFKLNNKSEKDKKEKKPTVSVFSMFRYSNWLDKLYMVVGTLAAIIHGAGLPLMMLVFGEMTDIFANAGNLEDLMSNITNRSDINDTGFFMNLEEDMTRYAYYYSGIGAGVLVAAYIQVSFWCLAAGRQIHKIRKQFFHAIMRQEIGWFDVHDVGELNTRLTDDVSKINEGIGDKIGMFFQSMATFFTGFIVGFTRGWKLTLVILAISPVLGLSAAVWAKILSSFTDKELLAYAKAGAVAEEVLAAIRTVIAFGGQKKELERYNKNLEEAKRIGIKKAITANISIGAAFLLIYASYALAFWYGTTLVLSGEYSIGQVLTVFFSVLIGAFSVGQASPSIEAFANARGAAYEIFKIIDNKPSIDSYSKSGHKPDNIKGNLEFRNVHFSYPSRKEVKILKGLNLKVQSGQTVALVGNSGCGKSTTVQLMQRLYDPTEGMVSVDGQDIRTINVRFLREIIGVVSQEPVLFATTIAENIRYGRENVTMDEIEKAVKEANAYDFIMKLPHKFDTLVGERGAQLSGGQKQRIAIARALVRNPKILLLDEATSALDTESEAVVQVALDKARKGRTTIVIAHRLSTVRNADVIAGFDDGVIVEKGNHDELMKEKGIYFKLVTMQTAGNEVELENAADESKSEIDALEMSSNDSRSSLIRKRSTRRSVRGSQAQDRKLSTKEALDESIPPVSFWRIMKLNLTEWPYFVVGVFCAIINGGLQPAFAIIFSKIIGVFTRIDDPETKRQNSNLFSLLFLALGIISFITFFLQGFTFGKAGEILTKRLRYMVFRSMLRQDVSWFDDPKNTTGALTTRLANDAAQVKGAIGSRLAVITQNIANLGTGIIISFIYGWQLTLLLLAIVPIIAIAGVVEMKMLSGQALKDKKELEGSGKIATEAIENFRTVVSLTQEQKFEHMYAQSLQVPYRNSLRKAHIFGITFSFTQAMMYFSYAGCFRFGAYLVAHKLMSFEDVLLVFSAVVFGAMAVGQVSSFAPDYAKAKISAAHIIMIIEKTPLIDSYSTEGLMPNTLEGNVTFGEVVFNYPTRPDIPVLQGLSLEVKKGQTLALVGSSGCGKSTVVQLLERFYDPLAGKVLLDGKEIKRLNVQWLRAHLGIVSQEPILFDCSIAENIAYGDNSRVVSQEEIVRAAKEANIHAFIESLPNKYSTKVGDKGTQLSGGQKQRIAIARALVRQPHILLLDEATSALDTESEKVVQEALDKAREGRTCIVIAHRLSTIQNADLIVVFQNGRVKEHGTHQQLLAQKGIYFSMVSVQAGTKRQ

H4 = assay: Luminescence Cell-Based Dose Response HTS to Identify Activators of 5'UTR Stem-Loop Driven Prion Protein mRNA Translation in H4 Neuroglioblastoma Cells. [Related pubchem assays: 1829 (Project Summary), 1814 (Primary HTS)]; details: Homo sapiens
[8] = Luminescence Cell-Based Dose Response HTS to Identify Activators of Luciferase Translation or Activity in H4 […] Cells. [Related pubchem assays: 1829 (Project Summary), 1814 (Primary HTS)]

Compound | IC50 [1] | IC50 [2] | EC50 [3] | EC50 [4] | EC50 [5] | EC50 [6] | IC50 (Protein skinhead-1) | EC50 [7] | EC50 (H4) | EC50 [8]
COc1ccc2cc(C(=O)Nc3ccc(Cl)cc3)sc(=O)c2c1OC | 3.51 µM (active) | 12.6 µM (inactive) | – | – | – | – | – | – | – | –
O=[N+]([O-])c1ccccc1-c1nc(-c2ccc(Br)o2)no1 | – | – | 4.88 µM (active) | 0.364 µM (active) | 0.252 µM (active) | 0.302 µM (active) | 69.1 µM (inactive) | 28.2 µM (inactive) | > 120 µM (not active) | < 0.1 µM (active)

Reference: ChEMBL document CHEMBL1201862, “PubChem BioAssay data set” (2004)
